Values after ≈ are worked out from the molar mass of the structure shown. Read-outs that look alike come from different tables or passages of the source.
Tests used:
C. alb (SC5314) = test: In vitro antifungal assay; type: cell-based; settings: Candida albicans, SC5314, read-out: MIC80 C. alb (SC5314)
Strain 901 = test: Antifungal activity against fluconazole-resistant strain; type: cell-based; settings: Candida albicans, 901, read-out: MIC80 Strain 901
Strain CaR = test: as above; type: cell-based; settings: Candida albicans, read-out: MIC80 Strain CaR
Strain 17# = test: as above; type: cell-based; settings: Candida albicans, read-out: MIC80 Strain 17#
Strain 904 = test: as above; type: cell-based, Candida albicans; settings: for MIC80: Candida albicans, 904, read-out: MIC80 Strain 904
MRC-5 cells = test: Cytotoxicity assay on normal cells; type: cell-based, human; settings: read-out: IC50 on MRC-5 cell lines
Strain 632 = test: Antifungal activity against fluconazole-resistant strain; type: cell-based; settings: Candida albicans, 632, read-out: MIC80 Strain 632
C. neo = test: In vitro antifungal assay; type: cell-based; settings: Cryptococcus neoformans, read-out: MIC80 C. neo
[1] = test system: C. alb (5314),C. par, C. gla, C. kru and C. neo; test: In vitro antifungal assay, span over the five tested species; type: cell-based; settings: range over C. alb (5314)
Plasma stability assay = settings: male, SD, rat
[2] = test system: strain 904, fluconazole-resistant strain of C. albicans; test: Minimum fungicidal concentration; type: cell-based, Candida albicans; settings: Candida albicans, read-out: MFC against C. alb
[3] = test system: five fluconazole-resistant strains obtained from clinical isolation; test: Antifungal activity, span over five fluconazole-resistant strains; type: cell-based, Candida albicans
C. alb SC5314 [4] = test: GC-MS analysis of sterol composition; type: cell-based, Candida albicans; settings: 0.03 μg mL^−1, 24 h
[5] = Metabolic stability assay of liver microsomes; type: in vitro ADME; settings: mouse
C. alb SC5314 [6] = test: Morphological observation of fungal cells by TEM; type: cell-based, Candida albicans; settings: 2 μg mL^−1, 24 h
[7] = test system: ERG11 and CDR1 of azole-resistant strain 904; test: RT-PCR expression of resistant genes ERG11 and CDR1; type: cell-based, Candida albicans; settings: 0.25 μg mL^−1, strain 904, RT-PCR
[8] = test system: azole-resistant strain 904; test: Yeast-to-hypha morphological transition; type: cell-based, Candida albicans; settings: 0.25 μg mL^−1, 5 h
[9] = test system: azole-resistant strain 904; test: In vivo antifungal potency, mouse infection model, kidney fungal burden; settings: mice, tail vein infection with strain 904, intraperitoneal, day 5

Row | Compound | MIC80 (C. alb (SC5314)) [µg/mL] | MIC80 (Strain 901) [µg/mL] | MIC80 (Strain CaR) [µg/mL] | MIC80 (Strain 17#) [µg/mL] | MIC80 (Strain 904) [µg/mL] | IC50 (MRC-5 cells; Homo sapiens, MRC5, 72 h) [µM] | MIC80 (Strain 632) [µg/mL] | MIC80 (C. neo) [µg/mL] | MIC80 / MIC span over the five tested fungi [1] [µg/mL] | further results
1 | O=C(Nc1cccc(Cl)c1)c1ccc(COC(Cn2ccnc2)c2ccc(Cl)cc2Cl)cc1 (stereo not drawn) [A09, N-(3-Chlorophenyl)-4-((1-(2,4-dichlorophenyl)-2-(1H-imidazol-1-yl)ethoxy)methyl)benzamide] | 0.03 (≈ 0.0599 µM) | 2 (≈ 3.99 µM) | 8 (≈ 16 µM) | 8 (≈ 16 µM) | 0.25 (≈ 0.499 µM) | > 100 | 4 (≈ 7.99 µM) | 0.125 (≈ 0.25 µM) |  | 
2 | O=C(Nc1cccc(Br)c1)c1ccc(COC(Cn2ccnc2)c2ccc(Cl)cc2Cl)cc1 (stereo not drawn) [A10, N-(3-Bromophenyl)-4-((1-(2,4-dichlorophenyl)-2-(1H-imidazol-1-yl)ethoxy)methyl)benzamide] | 0.25 (≈ 0.458 µM) | 2 (≈ 3.67 µM) | 8 (≈ 14.7 µM) | 16 (≈ 29.3 µM) | 0.25 (≈ 0.458 µM) | > 100 | 8 (≈ 14.7 µM) | 0.125 (≈ 0.229 µM) |  | 
3 | O=C(Nc1ccc2cccnc2c1)c1ccc(COC(Cn2ccnc2)c2ccc(Cl)cc2Cl)cc1 (stereo not drawn) [A12, 4-((1-(2,4-Dichlorophenyl)-2-(1H-imidazol-1-yl)ethoxy)methyl)-N-(quinolin-7-yl)benzamide] | 8 (≈ 15.5 µM) | 8 (≈ 15.5 µM) | 4 (≈ 7.73 µM) | 8 (≈ 15.5 µM) | 2 (≈ 3.87 µM) | > 100 | 8 (≈ 15.5 µM) | 4 (≈ 7.73 µM) | 2 to 64 | 
4 | O=C(Nc1cccc2ccccc12)c1ccc(COC(Cn2ccnc2)c2ccc(Cl)cc2Cl)cc1 (stereo not drawn) [A13, 4-((1-(2,4-Dichlorophenyl)-2-(1H-imidazol-1-yl)ethoxy)methyl)-N-(naphthalen-1-yl)benzamide] | 8 (≈ 15.5 µM) | 1 (≈ 1.94 µM) | 128 (≈ 248 µM) | 64 (≈ 124 µM) | 1 (≈ 1.94 µM) | > 100 | 8 (≈ 15.5 µM) | 64 (≈ 124 µM) | 2 to 64 | 
5 | O=C(Nc1ccc2ccccc2c1)c1ccc(COC(Cn2ccnc2)c2ccc(Cl)cc2Cl)cc1 (stereo not drawn) [A14, 4-((1-(2,4-Dichlorophenyl)-2-(1H-imidazol-1-yl)ethoxy)methyl)-N-(naphthalen-2-yl)benzamide] | 32 (≈ 62 µM) | 16 (≈ 31 µM) | 8 (≈ 15.5 µM) | 64 (≈ 124 µM) | 16 (≈ 31 µM) | > 100 | 16 (≈ 31 µM) | 32 (≈ 62 µM) | 2 to 64 | 
6 | O=C(Nc1ccc2[nH]ccc2c1)c1ccc(COC(Cn2ccnc2)c2ccc(Cl)cc2Cl)cc1 (stereo not drawn) [A15, 4-((1-(2,4-Dichlorophenyl)-2-(1H-imidazol-1-yl)ethoxy)methyl)-N-(1H-indol-5-yl)benzamide] | 128 (≈ 253 µM) | 8 (≈ 15.8 µM) | 128 (≈ 253 µM) | > 128 | 8 (≈ 15.8 µM) | > 100 | 128 (≈ 253 µM) | 128 (≈ 253 µM) |  | 
7 | OC(Cn1cncn1)(Cn1cncn1)c1ccc(F)cc1F [Fluconazole, fluconazole, reference compound] | 4 (≈ 13.1 µM) | > 128 | > 128 | > 128 | > 128 | > 100 | > 128 | 8 (≈ 26.1 µM) |  | half-life (Plasma stability assay): > 6 h; remaining at 3 h (Plasma stability assay): 102%; MFC [2]: > 128 µg/mL; Antifungal activity against the tested resistant strains (in words) [3]: completely inactive; Effect on ergosterol biosynthesis / sterol composition (C. alb SC5314 [4]): effectively suppresses ergosterol biosynthesis; half-life [5]: > 2 h; microsomal CLint [5]: 2 µL/min/mg; Fungal cell morphology (TEM) (C. alb SC5314 [6]): the cell membrane was damaged; MIC (Strain 904; Candida albicans, 904, read-out: MIC against C. alb): > 128 µg/mL; Expression of ERG11 and CDR1 [7]: overexpression of drug resistance gene ERG11 and CDR1; Morphological transition from yeast to hyphae [8]: did not inhibit the morphological transition; Efficacy in vivo (CFU fungal burden in kidneys) [9]: ineffective
8 | Clc1ccc(COC(Cn2ccnc2)c2ccc(Cl)cc2Cl)c(Cl)c1 (stereo not drawn) [Miconazole, miconazole] | 0.25 (≈ 0.601 µM) |  |  |  |  |  |  | 0.125 (≈ 0.3 µM) |  | half-life (Plasma stability assay): > 6 h; remaining at 3 h (Plasma stability assay): 94.9%; half-life [5]: 0.138 h; microsomal CLint [5]: 660 µL/min/mg
9 | N.N.[Cl][Pt][Cl] [cis-Pt, reference compound] |  |  |  |  |  |  |  |  |  | IC50 (MRC-5 cells; 72 hours): 78.3 µM

From paper PMC11962866 (RSC Advances, 2025)
